Results from US6972319B1, “Pituitary adenylate cyclase activating peptide (PACAP)receptor 3 (R3) agonists and their pharmacological methods of use” (priority 1999, dated 2005).

T1: PACAP-R2 (Homo sapiens, UniProt P32241)
T1 construct: expressed in transfected cells; host or cells: CHO cells
T1 sequence (P32241 31-457): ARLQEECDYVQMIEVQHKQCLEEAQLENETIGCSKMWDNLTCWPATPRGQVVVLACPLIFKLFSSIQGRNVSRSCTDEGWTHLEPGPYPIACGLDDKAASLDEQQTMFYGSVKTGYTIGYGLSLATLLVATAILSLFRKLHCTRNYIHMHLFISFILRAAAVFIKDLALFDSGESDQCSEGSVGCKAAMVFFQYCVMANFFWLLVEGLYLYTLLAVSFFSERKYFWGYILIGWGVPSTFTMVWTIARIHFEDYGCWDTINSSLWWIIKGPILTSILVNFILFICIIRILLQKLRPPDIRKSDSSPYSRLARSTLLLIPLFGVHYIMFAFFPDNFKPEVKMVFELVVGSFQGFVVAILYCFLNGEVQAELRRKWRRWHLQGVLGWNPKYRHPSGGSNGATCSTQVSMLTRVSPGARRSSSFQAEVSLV

T2: PACAP-R3 (human, UniProt P41587 24-438)
T2 sequence (looked up): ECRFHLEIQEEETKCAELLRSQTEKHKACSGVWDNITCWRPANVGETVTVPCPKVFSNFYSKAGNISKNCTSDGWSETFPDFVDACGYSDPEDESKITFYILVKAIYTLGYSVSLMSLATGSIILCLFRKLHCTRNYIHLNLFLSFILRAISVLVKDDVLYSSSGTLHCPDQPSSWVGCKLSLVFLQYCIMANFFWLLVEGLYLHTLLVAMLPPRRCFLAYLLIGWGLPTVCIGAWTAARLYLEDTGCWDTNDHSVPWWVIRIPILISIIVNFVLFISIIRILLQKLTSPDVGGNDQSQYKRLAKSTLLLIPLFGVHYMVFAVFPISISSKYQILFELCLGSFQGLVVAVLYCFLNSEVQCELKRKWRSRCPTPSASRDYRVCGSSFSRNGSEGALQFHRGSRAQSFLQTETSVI


molecular target: T1, PACAP-R2; assay: Cyclic AMP SPA on CHO cells transfected with PACAP-R2; assay type: cell-based; settings: cAMP SPA, concentration at which 50% of maximum PACAP27 activity is achieved, NA = no detectable activities, read-out: R2 EC50
Description: CHO cells expressing the PACAP R3 were plated in 96-well plates (Costar) at 8×10^4 cell/well and grown at 37 C. for 24 hours in α MEM+nucleosides+glutamine (Giobco BRL), 10% FBS, 100 μg/ml Pen/Strep, 0.3 mg/ml glutamine, 1 mM HEPES, 0.5 mg/ml Geneticin (Gibco BRL). The media was removed and the plates were washed with PBS. The cells were incubated with a peptide, in Hepes-PBS-BSA with 0.4 mg/mlSoybean Trypsin Inhibitor, 0.5 mg/ml Bacitracin, 100 uM IBMX, for 15 min at 37 C. Cyclic AMP in the cell extracts was quantitated using the cAMP SPA direct screening assay system (Amersham Pharmacia Biotech Inc, Piscataway, N.J.,). The peptides shown in Table 3 were assayed for cAMP activity.
EC50 is defined as the concentration of the polypeptide at which 50% of maximum PACAP27 activity is achieved. “NA” denotes no detectable activities. “R3 Selectivity” is derived from the ratio of EC50 at R2 versus EC50 at R3.

Row | Molecule | EC50 [nM]
1 | CC[C@H](C)[C@H](NC(=O)[C@H](CO)NC(=O)[C@H](CC(N)=O)NC(=O)[C@H](CC(C)C)NC(=O)[C@H](Cc1ccc(O)cc1)NC(=O)[C@H](CCCCN)NC(=O)[C@H](CCCCN)NC(=O)[C@H](C)NC(=O)[C@H](C)NC(=O)[C@H](CCSC)NC(=O)[C@H](CCC(N)=O)NC(=O)[C@H](CCCCN)NC(=O)[C@H](CCCNC(=N)N)NC(=O)[C@H](CC(C)C)NC(=O)[C@H](CCCNC(=N)N)NC(=O)[C@@H](NC(=O)[C@H](Cc1ccc(O)cc1)NC(=O)[C@H](CC(N)=O)NC(=O)[C@H](CC(=O)O)NC(=O)[C@@H](NC(=O)[C@H](Cc1ccccc1)NC(=O)[C@@H](NC(=O)[C@H](C)NC(=O)[C@H](CC(=O)O)NC(=O)[C@H](CO)NC(=O)[C@@H](N)Cc1c[nH]cn1)C(C)C)[C@@H](C)O)[C@@H](C)O)C(=O)N[C@@H](CCCCN)C(=O)N[C@@H](CC(N)=O)C(=O)N[C@@H](C)C(=O)N[C@@H](CCCNC(=N)N)C(=O)O [Peptide R3P134] | 40
2 | CC[C@H](C)[C@H](NC(=O)[C@H](CO)NC(=O)[C@H](CC(N)=O)NC(=O)[C@H](CC(C)C)NC(=O)[C@H](Cc1ccc(O)cc1)NC(=O)[C@H](CCCCN)NC(=O)[C@H](CCCCN)NC(=O)[C@H](C)NC(=O)[C@H](C)NC(=O)[C@H](CCSC)NC(=O)[C@H](CCC(N)=O)NC(=O)[C@H](CCCCN)NC(=O)[C@H](CCCNC(=N)N)NC(=O)[C@H](CC(C)C)NC(=O)[C@H](CCCNC(=N)N)NC(=O)[C@@H](NC(=O)[C@H](Cc1ccc(O)cc1)NC(=O)[C@H](CC(N)=O)NC(=O)[C@H](CC(=O)O)NC(=O)[C@@H](NC(=O)[C@H](Cc1ccccc1)NC(=O)[C@@H](NC(=O)[C@H](C)NC(=O)[C@H](CC(=O)O)NC(=O)[C@H](CO)NC(=O)[C@@H](N)Cc1c[nH]cn1)C(C)C)[C@@H](C)O)[C@@H](C)O)C(=O)N[C@@H](CCCCN)C(=O)N[C@@H](CC(N)=O)C(=O)N[C@@H](CCCCN)C(=O)N[C@@H](CC(C)C)C(=O)O [Peptide R3P162] | 20
3 | CC[C@H](C)[C@H](NC(=O)[C@H](CO)NC(=O)[C@H](CC(N)=O)NC(=O)[C@H](CC(C)C)NC(=O)[C@H](Cc1ccc(O)cc1)NC(=O)[C@H](CCCCN)NC(=O)[C@H](CCCCN)NC(=O)[C@H](C)NC(=O)[C@H](C)NC(=O)[C@H](CCSC)NC(=O)[C@H](CCC(N)=O)NC(=O)[C@H](CCCCN)NC(=O)[C@H](CCCNC(=N)N)NC(=O)[C@H](CC(C)C)NC(=O)[C@H](CCCNC(=N)N)NC(=O)[C@@H](NC(=O)[C@H](Cc1ccc(O)cc1)NC(=O)[C@H](CC(N)=O)NC(=O)[C@H](CC(=O)O)NC(=O)[C@@H](NC(=O)[C@H](Cc1ccccc1)NC(=O)[C@@H](NC(=O)[C@H](C)NC(=O)[C@H](CC(=O)O)NC(=O)[C@H](CO)NC(=O)[C@@H](N)Cc1c[nH]cn1)C(C)C)[C@@H](C)O)[C@@H](C)O)C(=O)N[C@@H](CCCCN)C(=O)N[C@@H](CC(N)=O)C(=O)N[C@@H](CCCCN)C(=O)N[C@@H](CCSC)C(=O)O [Peptide R3P163] | 40
4 | CC[C@H](C)[C@H](NC(=O)[C@H](CO)NC(=O)[C@H](CC(N)=O)NC(=O)[C@H](CC(C)C)NC(=O)[C@H](Cc1ccc(O)cc1)NC(=O)[C@H](CCCCN)NC(=O)[C@H](CCCCN)NC(=O)[C@H](C)NC(=O)[C@H](C)NC(=O)[C@H](CCSC)NC(=O)[C@H](CCC(N)=O)NC(=O)[C@H](CCCCN)NC(=O)[C@H](CCCNC(=N)N)NC(=O)[C@H](CC(C)C)NC(=O)[C@H](CCCNC(=N)N)NC(=O)[C@@H](NC(=O)[C@H](Cc1ccc(O)cc1)NC(=O)[C@H](CC(N)=O)NC(=O)[C@H](CC(=O)O)NC(=O)[C@@H](NC(=O)[C@H](Cc1ccccc1)NC(=O)[C@@H](NC(=O)[C@H](C)NC(=O)[C@H](CC(=O)O)NC(=O)[C@H](CO)NC(=O)[C@@H](N)Cc1c[nH]cn1)C(C)C)[C@@H](C)O)[C@@H](C)O)C(=O)N[C@@H](CCCCN)C(=O)N[C@@H](CC(N)=O)C(=O)N[C@@H](CCCCN)C(=O)N[C@@H](Cc1ccc(O)cc1)C(=O)O [Peptide R3P171] | 80

Further lines, results first:

Row | EC50 [nM] | Molecule
5 | 8 | CC[C@H](C)[C@H](NC(=O)[C@H](CO)NC(=O)[C@H](CC(N)=O)NC(=O)[C@H](CC(C)C)NC(=O)[C@H](Cc1ccc(O)cc1)NC(=O)[C@H](CCCCN)NC(=O)[C@H](CCCCN)NC(=O)[C@H](C)NC(=O)[C@H](C)NC(=O)[C@H](CCSC)NC(=O)[C@H](CCC(N)=O)NC(=O)[C@H](CCCCN)NC(=O)[C@H](CCCNC(=N)N)NC(=O)[C@H](CC(C)C)NC(=O)[C@H](CCCNC(=N)N)NC(=O)[C@@H](NC(=O)[C@H](Cc1ccc(O)cc1)NC(=O)[C@H](CC(N)=O)NC(=O)[C@H](CC(=O)O)NC(=O)[C@@H](NC(=O)[C@H](Cc1ccccc1)NC(=O)[C@@H](NC(=O)[C@H](C)NC(=O)[C@H](CC(=O)O)NC(=O)[C@H](CO)NC(=O)[C@@H](N)Cc1c[nH]cn1)C(C)C)[C@@H](C)O)[C@@H](C)O)C(=O)N[C@@H](Cc1ccc(O)cc1)C(=O)N[C@@H](CC(N)=O)C(=O)N[C@@H](CCCCN)C(=O)N[C@@H](CCCNC(=N)N)C(=O)O [Peptide R3P133]
6 | 3 | CC[C@H](C)[C@H](NC(=O)[C@H](CO)NC(=O)[C@H](CC(N)=O)NC(=O)[C@H](CC(C)C)NC(=O)[C@H](Cc1ccc(O)cc1)NC(=O)[C@H](CCCCN)NC(=O)[C@H](CCCCN)NC(=O)[C@H](C)NC(=O)[C@H](C)NC(=O)[C@H](CCSC)NC(=O)[C@H](CCC(N)=O)NC(=O)[C@H](CCCCN)NC(=O)[C@H](CCCNC(=N)N)NC(=O)[C@H](CC(C)C)NC(=O)[C@H](CCCNC(=N)N)NC(=O)[C@@H](NC(=O)[C@H](Cc1ccc(O)cc1)NC(=O)[C@H](CC(N)=O)NC(=O)[C@H](CC(=O)O)NC(=O)[C@@H](NC(=O)[C@H](Cc1ccccc1)NC(=O)[C@@H](NC(=O)[C@H](C)NC(=O)[C@H](CC(=O)O)NC(=O)[C@H](CO)NC(=O)[C@@H](N)Cc1c[nH]cn1)C(C)C)[C@@H](C)O)[C@@H](C)O)C(=O)N[C@@H](CCSC)C(=O)N[C@@H](CC(N)=O)C(=O)N[C@@H](CCCCN)C(=O)N[C@@H](CCCNC(=N)N)C(=O)O [Peptide R3P124]
7 | 3 | CC[C@H](C)[C@H](NC(=O)[C@H](CO)NC(=O)[C@H](CC(N)=O)NC(=O)[C@H](CC(C)C)NC(=O)[C@H](Cc1ccc(O)cc1)NC(=O)[C@H](CCCCN)NC(=O)[C@H](CCCCN)NC(=O)[C@@H](NC(=O)[C@H](C)NC(=O)[C@H](CCSC)NC(=O)[C@H](CCC(N)=O)NC(=O)[C@H](CCCCN)NC(=O)[C@H](CCCNC(=N)N)NC(=O)[C@H](CC(C)C)NC(=O)[C@H](CCCNC(=N)N)NC(=O)[C@@H](NC(=O)[C@H](Cc1ccc(O)cc1)NC(=O)[C@H](CC(N)=O)NC(=O)[C@H](CC(=O)O)NC(=O)[C@@H](NC(=O)[C@H](Cc1ccccc1)NC(=O)[C@@H](NC(=O)[C@H](C)NC(=O)[C@H](CC(=O)O)NC(=O)[C@H](CO)NC(=O)[C@@H](N)Cc1c[nH]cn1)C(C)C)[C@@H](C)O)[C@@H](C)O)C(C)C)C(=O)N[C@@H](CCCCN)C(=O)N[C@@H](CC(N)=O)C(=O)N[C@@H](CCCCN)C(=O)N[C@@H](CCCNC(=N)N)C(=O)O [Peptide R3P113]

molecular target: T2, PACAP-R3; assay: cell-based or functional assay; settings: not given

Row | R3 EC50 [nM] | R3 Selectivity | Molecule
8 | 0.08 | 100 | HSDAVFTDNYTRLRKQMAVKKYLNSIKK [R3P41]
9 | 0.03 | 10 | HSDAVFTDNYTRLRKQMAVKKYLNSIKN [R3P42]
10 | 0.08 | 10 | HSDAVFTDNYTRLRKQMAVKKYLNSILK [R3P43]
